Like-named read-outs stand apart in the source and are kept apart here.
Legend:
Tyrosinase [1] = molecular target: T1, Tyrosinase (Agaricus bisporus, UniProt C7FF04); test: Tyrosinase assay (inhibitory activity, L-tyrosine substrate, product detected at 475 nm); format: biochemical; set-up: purchased Sigma–Aldrich T3824; settings: for Inhibitory Ratio at 50 μM: 50 μM compound
Experimental: (§1) To assess the inhibitory effect of compounds on tyrosinase, 130 μL tyrosinase in 0.05 mM phosphate buffer (pH 6.8) was aliquoted into 96-well plates, and 20 μL of each compound at concentrations ranging from 0.5 to 0.0075 mM was added. Next, 50 μL 1.2 mM L-tyrosine in phosphate buffer was diluted to calculate the inhibitory activity. Finally, 50 μL 10–0.62 mM l-tyrosine in buffer was added to analyze the initial velocity (v0). Twenty minutes after starting the reaction, the amount of product was detected at 475 nm. The inhibitory activity was calculated using the following equation: Inhibitory activity rate (%) = [(ΔC − ΔS)/ΔC] × 100, where C and S are the intensity of control and inhibitor after 20 min, respectively.
Target sequence in this assay (C7FF04 1-392 limits assumed): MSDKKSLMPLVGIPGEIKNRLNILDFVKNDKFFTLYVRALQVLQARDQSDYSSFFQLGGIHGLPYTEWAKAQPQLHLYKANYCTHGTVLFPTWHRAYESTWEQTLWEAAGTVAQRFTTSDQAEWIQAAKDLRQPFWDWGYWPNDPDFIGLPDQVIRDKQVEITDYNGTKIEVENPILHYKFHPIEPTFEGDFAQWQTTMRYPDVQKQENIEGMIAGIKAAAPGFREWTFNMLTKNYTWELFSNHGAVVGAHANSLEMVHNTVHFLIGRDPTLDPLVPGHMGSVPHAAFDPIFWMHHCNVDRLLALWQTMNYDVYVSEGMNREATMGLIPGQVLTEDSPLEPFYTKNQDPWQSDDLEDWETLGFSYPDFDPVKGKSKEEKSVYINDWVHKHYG

Tyrosinase [2] = molecular target: T1, Tyrosinase; test: Enzyme kinetics on tyrosinase (Lineweaver–Burk and Dixon plots); format: biochemical; settings: various substrate concentrations
Experimental: The v0 was calculated at ~10% of the substrate conversion rate by tyrosinase. The results are shown as Lineweaver–Burk plots (Figure 2A–C and Table 1).
as §1
Target sequence in this assay (C7FF04 2-392): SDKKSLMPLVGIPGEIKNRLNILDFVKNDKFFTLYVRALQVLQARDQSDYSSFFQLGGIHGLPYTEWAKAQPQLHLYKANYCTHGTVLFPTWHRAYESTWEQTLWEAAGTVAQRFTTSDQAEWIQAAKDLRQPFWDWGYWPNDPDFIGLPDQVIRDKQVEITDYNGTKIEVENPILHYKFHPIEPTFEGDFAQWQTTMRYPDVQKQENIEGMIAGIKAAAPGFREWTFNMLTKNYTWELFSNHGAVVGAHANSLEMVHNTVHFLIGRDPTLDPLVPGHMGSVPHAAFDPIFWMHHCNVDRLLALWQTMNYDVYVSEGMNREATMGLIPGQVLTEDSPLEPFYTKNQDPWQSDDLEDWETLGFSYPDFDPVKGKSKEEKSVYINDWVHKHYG

[3] = Mean ± SEM, tested three times, read-out: IC50

Row | Structure (SMILES) | Inhibitory Ratio at 50 μM (Tyrosinase [1]; tested three times) [%] | Inhibitory activity on tyrosinase (in words) (Tyrosinase [1]) | IC50 (Tyrosinase [1]; [3]) [µM] | Binding Mode (Tyrosinase [2]) | IC50 (Tyrosinase [1]) [µM]
1 | OC[C@H]1O[C@@H](Oc2cc3c(O)cc(O)cc3[o+]c2-c2ccc(O)cc2)[C@H](O)[C@@H](O)[C@@H]1O [Compound 6, callistephin (pelargonidin 3-O-glucoside)] | 6.5 ± 2.1 | – | – | – | –
2 | Oc1cc(O)c2ccc(-c3ccc(O)c(O)c3)[o+]c2c1 [Compound 1, luteolinidin] | – | most potent inhibitors | – | Competitive inhibitor | 3.7 ± 0.8
3 | OC[C@H]1O[C@@H](Oc2cc3c(O)cc(O)cc3[o+]c2-c2ccc(O)c(O)c2)[C@H](O)[C@@H](O)[C@@H]1O [Compound 4, kuromanin (cyanidin 3-O-glucoside)] | −1.9 ± 40.0 | – | – | – | –

Second part, led by results:

Row | Inhibitory Ratio at 50 μM (Tyrosinase [1]; tested three times) [%] | Inhibitory activity on tyrosinase (in words) (Tyrosinase [1]) | IC50 (Tyrosinase [1]; [3]) [µM] | Binding Mode (Tyrosinase [2]) | Structure (SMILES) | IC50 (Tyrosinase [1]) [µM]
4 | 47.5 ± 3.2 | – | – | – | OC[C@H]1O[C@@H](Oc2cc3c(O)cc(O)cc3[o+]c2-c2cc(O)c(O)c(O)c2)[C@H](O)[C@@H](O)[C@@H]1O [Compound 5, delphinidin 3-O-glucoside] | –
5 | 69.2 ± 1.0 | most potent inhibitors | 10.3 ± 1 | Competitive inhibitor | COc1cc(-c2[o+]c3cc(O)cc(O)c3cc2O[C@@H]2O[C@H](CO)[C@@H](O)[C@H](O)[C@H]2O)cc(O)c1O [Compound 2, petunidin 3-O-glucoside] | –
6 | 55.2 ± 0.9 | moderate inhibitory activity | 41.3 ± 3.2 | Competitive inhibitor | OC[C@H]1O[C@@H](Oc2cc3c(O)cc(O)cc3[o+]c2-c2cc(O)c(O)c(O)c2)[C@H](O)[C@@H](O)[C@H]1O [Compound 3, delphinidin 3-O-galactoside] | –
